Experimental data taken from BindingDB's records for doi:10.1016/j.ejmech.2019.05.027 (Central University of Punjab, 2019).
Residues, ends and D or L forms follow the SMILES beside them.

What was measured:
[1] = Inhibition of P-gp in HEK293/ABCB1 cells assessed as potentiation of cisplatin-induced cytotoxicity by measuring cisplatin IC50 at 2 uM incubated for 48 hrs by MTT assay (Rvb = 8.08 uM)
[2] = molecular target: T1, ATP-dependent translocase ABCB1 (Homo sapiens, UniProt P08183); test: Inhibition of P-gp in HEK293/ABCB1 cells assessed as potentiation of doxorubicin-induced cytotoxicity by measuring doxorubicin IC50 at 1 uM incubated for 48 hrs by MTT assay (Rvb = 8.08 uM)
T1 sequence (P08183 whole entry): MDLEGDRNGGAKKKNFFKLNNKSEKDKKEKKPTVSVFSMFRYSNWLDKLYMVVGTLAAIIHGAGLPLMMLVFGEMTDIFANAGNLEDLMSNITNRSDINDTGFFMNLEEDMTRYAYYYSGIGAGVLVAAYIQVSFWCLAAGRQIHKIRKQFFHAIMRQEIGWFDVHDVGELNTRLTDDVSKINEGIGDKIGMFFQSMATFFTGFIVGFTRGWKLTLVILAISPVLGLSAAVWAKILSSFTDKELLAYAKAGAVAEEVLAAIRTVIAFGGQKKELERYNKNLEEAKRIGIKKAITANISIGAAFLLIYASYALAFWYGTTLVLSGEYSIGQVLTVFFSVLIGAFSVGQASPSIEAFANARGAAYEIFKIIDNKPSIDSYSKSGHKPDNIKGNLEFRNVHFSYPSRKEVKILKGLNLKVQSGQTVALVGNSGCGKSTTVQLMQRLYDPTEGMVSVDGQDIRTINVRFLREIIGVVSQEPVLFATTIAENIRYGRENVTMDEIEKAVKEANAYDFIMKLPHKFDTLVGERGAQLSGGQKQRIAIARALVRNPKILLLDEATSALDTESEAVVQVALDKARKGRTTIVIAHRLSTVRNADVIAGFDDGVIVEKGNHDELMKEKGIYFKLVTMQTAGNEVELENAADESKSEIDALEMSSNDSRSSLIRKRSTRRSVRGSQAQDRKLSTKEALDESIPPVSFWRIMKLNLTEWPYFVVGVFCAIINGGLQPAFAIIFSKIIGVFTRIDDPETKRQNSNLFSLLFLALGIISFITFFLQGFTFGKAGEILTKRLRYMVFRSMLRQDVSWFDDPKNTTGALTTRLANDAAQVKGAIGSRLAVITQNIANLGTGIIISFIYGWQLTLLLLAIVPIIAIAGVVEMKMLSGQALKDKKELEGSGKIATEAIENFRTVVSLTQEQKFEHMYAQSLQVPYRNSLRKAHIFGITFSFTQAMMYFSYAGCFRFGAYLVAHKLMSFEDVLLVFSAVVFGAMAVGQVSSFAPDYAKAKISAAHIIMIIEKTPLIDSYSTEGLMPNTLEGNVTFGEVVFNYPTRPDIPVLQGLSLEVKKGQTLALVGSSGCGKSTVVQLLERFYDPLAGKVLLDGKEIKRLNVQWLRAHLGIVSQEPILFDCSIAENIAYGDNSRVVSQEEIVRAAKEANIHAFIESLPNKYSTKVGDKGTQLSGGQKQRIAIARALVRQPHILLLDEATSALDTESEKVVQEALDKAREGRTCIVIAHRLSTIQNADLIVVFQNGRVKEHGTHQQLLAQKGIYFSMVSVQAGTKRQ

[3] = molecular target: T1, ATP-dependent translocase ABCB1; test: Inhibition of P-gp in human NCI-H460/R cells assessed as potentiation of doxorubicin-induced cytotoxicity by measuring reduction in doxorubicin IC50 at 0.1 to 2.5 uM incubated for 72 hrs by MTT assay
[4] = molecular target: T1, ATP-dependent translocase ABCB1; test: Inhibition of P-gp in human Caco2 cells assessed as potentiation of doxorubicin-induced cytotoxicity by measuring reduction in doxorubicin IC50 at 2.2 uM incubated for 24 hrs by MTT assay

SMILES: CCOc1cc(O)cc2c1C[C@@H](OC(=O)c1cc(OCC)c(OCC)c(OCC)c1)[C@@H](c1cc(O)c(OCC)c(OCC)c1)O2
- IC50 [1]: 920 nM
- IC50 [2]: 620 nM

SMILES: CC(C)[C@H](NC(=O)[C@H](CO)NC(=O)[C@@H](N)Cc1ccc(O)cc1)C(=O)O (H-Tyr-Ser-Val-OH)
- IC50 [3]: 700 nM

SMILES: CC1(C)O[C@H]2CC(=O)OC[C@]23[C@H]2CC[C@@]4(C)[C@H](c5ccoc5)OC(=O)[C@H]5O[C@]54[C@]2(C)C(=O)C[C@@H]13 [Limonin]
- IC50 [4]: 19100 nM
